Measured values taken from patent US8647643B2, “Farnesoid-X-receptor antagonist as a vaccine adjuvant” (priority 2008, dated 2014).

Key:
[1] = system: inactivated rabies virus (Rabipur); design: species or system mice; details: mouse, in vivo
[2] = system: Recombinant NE protein of hepatitis E virus; assay: Sero-conversion after recombinant NE protein of hepatitis E virus mixed with BB; assay type: in vivo; details: 1 μg NE protein with 5 μM of BB, intramuscularly
[3] = system: rDNA coding Rabies antigen; design: species or system Swiss albino mice; details: mouse, in vivo
[4] = Water solubility (statement); assay type: physicochemical
[5] = system: cancer cells (Mia-paca 2); assay: Interferon gamma ELISPOT on splenocytes after immunization with cancer cells with/without BB; assay type: in vivo, mice
rHBsAg antigen = assay: Anti-HBsAg antibody titers after immunization of rats with rHBsAg plus BB adjuvant; assay type: in vivo; details: Wistar rats, rHBsAg 10 μg intramuscular day 0, serum every 14 days; BB-50 uM, BB-5 uM

CC(=O)C1=CC[C@H]2[C@@H]3CC=C4C[C@@H](O)CC[C@]4(C)[C@H]3CC[C@]12C [BB, 3β-hydroxy-5,16-pregnadien-20-one]
antibody response compared with rabies vaccine without adjuvant [1]: faster and stronger response
day on which titers were protective [1]: 14 days
sero-conversion ([2]; after 2nd injection given 2 weeks later): 100%
sero-conversion ([2]; day 14 after 1st injection): 60%
day on which antibody titers are protective, after 1st dose of vaccine [3]: 28 days
time the titers remained protective [3]: about 100 days
water solubility [4]: water insoluble
effect of the generated immune response on tumor size ([5]; BB with cancer cells (Mia-paca 2)): reduction of tumor size
IFN-g ELISPOT response relative to the mycobacterium adjuvanted group ([5]; doses day 1 and day 21, splenocytes day 28): more then three times greater response
ranking as adjuvant (anti-HBsAg antibodies) (rHBsAg antigen): lead adjuvants
